Where two headings read alike, the source gives them in different places.
Key:
human melanoma LOX = assay: Survival of nude mice implanted with human melanoma LOX; assay type: in vivo, human melanoma in male athymic Swiss nu/nu mouse; settings: Mus musculus, ip, 24 h, read-out: T/C (survival)
Procedure: LOX, a human melanoma cell line, grown subcutaneously in nude mice was excised, trypsinized to yield a single cell suspension using a metal grid with a […]. Red blood cells were lysed by incubation with 0.17 molar ammonium chloride at 4° C. for 20 minutes. Five million viable trypan blue negative cells made up in 0.1 ml of Dulbecco modified Eagles' medium (DME) were injected into the peritoneal cavity of a male athymic Swiss nu/nu mouse. The control group and each treatment group consisted of 5 to 10 mice. Treatment was commenced the following day by intraperitoneal injection.
Ten control mice received 0.25 ml of 2% dextrose on those days the treated groups were injected with the compounds of this invention. The compounds of the General Formulas. (1) to (6) used in this invention which were tested are listed in Table VIII below and the results obtained are shown in Table VIII and FIG. 1-6 of the accompanying drawings. T/C is the ratio, expressed as a percentage of the mean survival age of the treated group to the mean survival age of the untreated control group.

[1] = system: human ovarian carcinoma OVCAR-3; assay: Survival of nude mice implanted with human ovarian carcinoma OVCAR-3; assay type: in vivo, human ovarian carcinoma in athymic Swiss nu/nu mice; settings: 5 mg/kg, i.p. on day 1, 5, 9, 14, 19, 23, 27, 48
Procedure: A human ovarian carcinoma cell line, OVCAR-3, was used. Ten million cells of this cell line were injected IP into ten athymic Swiss nu/nu mice. Ten mice into which these cancer cells had been injected were selected as a control group and received in equal volume of 5% dextrose as that of the treated group. The compounds of the General Formulas (1) to (6) which were tested and the results obtained are shown in Table IX below and in FIG. 7-9 of the accompanying drawings.

[2] = system: human colon carcinoma CX-1; assay: Anti-human colon carcinoma CX-1 activity in nude mice, tumor inhibition; assay type: in vivo, human colon carcinoma in Swiss nu/nu mice; settings: Mus musculus, ip, 24 h
Source text: Human colon carcinoma cell line CX-1 has been chosen by the National Cancer Institute as a mode for cancer drug screening (NCI Protocol 3C2H2). It was established in culture from the surgical explant of the primary colon adenocarcinoma of a person with no previous chemotherapy. The cultured CX-1 cells, upon subcutaneous injection, can grow readily in nude mice as a moderately- to well-differentiated human colon carcinoma. CEA is expressed as expected for differentiated colon carcinoma cells. Abundant keratin, consistent with epithelial origin, is present. Increased uptake and prolonged retention of delocalized lipophilic cations are observed.
Swiss nu/nu mice obtained from Taconic Farm were housed in a pathogen-free environment. Tumors subcutaneously passaged in nude mice were excised under sterile conditions and converted to a single cell suspension using a metal grid with a 0.4 mm mesh. Red blood cells were lysed by incubation with 0.17M ammonium chloride at 4° C. for 20 minutes. Cells were scored for viability with trypan blue. Viable CX-1 cells (2.5 million) made up in 0.1 ml of cell culture medium were injected subcutaneously into each nude mouse. The mice were randomly allocated into a control group (five mice) and a treatment group (five mice per group). The drug treatment was commenced the next day. Doses and schedules were developed empirically and were based mainly on information on LD50 and LD10 obtained from preliminary toxicity studies. The control group received an equivalent volume of hydroxylpropyl-β-cyclodextrin-5% glucose solution.
The pharmaceutical compositions tested comprised solutions in 5% glucose subjected to sonication at concentrations of 1 mg/ml. Those compounds which were not completely dissolved by this procedure were dissolved in hydroxypropyl-β-cyclodextrin using the following method. Hydroxypropyl-β-cyclodextrin (45 g) was mixed with 100 ml of sterilized, double distilled water and stirred for four hours. Each of the compounds to be tested (20 mg) was mixed with 10 ml of hydroxypropyl-β-cyclodextrin solution and sonicated for 60 minutes in the dark. This solution was then diluted in 5% glucose to yield a final compound concentration of 0.5 mg/ml, and further sonicated for 60 minutes in the dark to assure that the compound was completely dissolved.
When the growth of tumors in the control group reached the exponential phase and the size of the tumor was palpable (usually 20 to 30 days after tumor implantation), the experiments were terminated. Tumors in each mouse were excised and weighed using an analytical balance. Total tumor weight in each group from five mice was calculated. Per cent tumor inhibition between the treated group and the control group was then calculated for each group.

[3] = system: human colon carcinoma cell line CX-1; assay: Colony formation assay, human colon carcinoma CX-1; assay type: cell-based; settings: Table III; for IC50: Homo sapiens, Colon carcinoma cell, read-out: CX-1 (IC50); for Selectivity (ratio of IC50 for CV-1 and IC50 for CX-1): CV-1/CX-1
Procedure: Human colon carcinoma cell line CX-1 or normal monkey kidney epithelial cell line CV-1 was chosen as representatives of cancer cells and normal cells, respectively. […] CX-1 cells (2,000 cells/well) and CV-1 cells (1,000 cells/well) were plated in 24-well plastic culture plates. […] The control received culture media only. Cells were treated with compounds of General Formulas (1) to (6) at 37° C. for 24 hours. After rinsing with fresh culture medium three times, the cells were further incubated at 37° C. for 7 to 10 days. Cell colonies were fixed and stained with 2% crystal violet in 70% ethanol for 10 minutes and rinsed in water. […] The selectivity is defined as the ratio of IC50 for CV-1 and IC50 for CX-1.

[4] = system: human pancreatic carcinoma CRL 1420 cell line; assay: Colony formation assay, human pancreatic carcinoma CRL 1420; assay type: cell-based; settings: Table VII; for Selectivity (CV-1 IC50 / CRL-1420 IC50): CV-1/CRL-1420
Source text: (§1) The control received culture media only.
The Selectivity values, CRL 1420 values and CV-1 values for compounds of the General Formulas (1) to (6) used in the present invention are shown in Table VII below.

[5] = system: normal monkey kidney epithelial cell line CV-1; assay: Colony formation assay, normal monkey kidney epithelial cells CV-1; settings: Primates, Epithelial cell;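 note: colonies visualized by crystal violet staining, incubation at 37 °C, IC50 relative to untreated wells given culture medium alone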
[6] = system: human bladder carcinoma EJ cell line; assay: Colony formation assay, human bladder carcinoma EJ; assay type: cell-based; settings: Table IV; for IC50: Homo sapiens, EJ, 24 h, 24 h treatment, read-out: EJ (IC50); for Selectivity (CV-1 IC50 / EJ IC50): CV-1/EJ
Source text: as §1

[7] = system: human melanoma LOX cell line; assay: Colony formation assay, human melanoma LOX; assay type: cell-based; settings: Table V
Source text: as §1

[8] = system: human breast carcinoma MCF-7 cell line; assay: Colony formation assay, human breast carcinoma MCF-7; assay type: cell-based; settings: Table VI
Source text: as §1
The Selectivity values, MCF-7 values and CV-1 values for compounds of the General Formulas (1) to (6) used in the present invention are shown in Table VI below.

normal nude mice = assay: Toxicity to normal nude mice
[9] = 24 h treatment, colony count after 7 to 10 days
[10] = read-out: CV-1 (IC50), Table III, 24 h treatment, colony count after 7 to 10 days
[11] = read-out: CV-1 (IC50), Table VII
[12] = read-out: CV-1 (IC50), Table IV

| Structure (SMILES) | IC50 [3, 9] | Selectivity (ratio of IC50 for CV-1 and IC50 for CX-1) [3] | CRL-1420 (IC50) ([4]; 24 h treatment) | Selectivity (CV-1 IC50 / CRL-1420 IC50) [4] | IC50 [5, 10] | IC50 [5, 11] | IC50 [6] | Selectivity (CV-1 IC50 / EJ IC50) [6] | IC50 [5, 12] | toxicity to normal nude mice (normal nude mice) | further results |
| --- | --- | --- | --- | --- | --- | --- | --- | --- | --- | --- | --- |
| CCN1CCSC1=CC=c1sc(=Cc2sc3c4ccccc4ccc3[n+]2CC)n(CC)c1=O [Compound 116] |  |  |  |  |  |  |  |  |  |  | response vs control in vivo at 5 mg/kg (human melanoma LOX; 5 mg/kg, i.p. on day 1, 5, 9, 13, 17, 22): 582%; T/C (survival) [1]: > 378%; inhibition in vivo at 5 mg/kg ([2]; 5 mg/kg, i.p. on day 1, 6, 10, 14, 19, 23): 77% |
| CCn1c(=Cc2sc3c4ccccc4ccc3[n+]2CC)sc(=CC=C2Sc3ccc4ccccc4c3N2C)c1=O [Compound 32] | 0.02 µg/mL | 1000 | < 0.1 µg/mL | > 200 | 20 µg/mL | 20 µg/mL |  |  |  |  | response vs control in vivo at 40 mg/kg (human melanoma LOX; 40 mg/kg, i.p. on day 1, 2, 3, 4, 5, 7, 8, 9, 10): 231%; inhibition in vivo at 20 mg/kg ([2]; i.p. on day 1, 2, 4, 6, 8): 40.5% |
| CC[n+]1c(C=c2sc(=CC=C3Sc4ccc5ccccc5c4N3C)c(=O)n2C)sc2c3ccccc3ccc21 [Compound 47] | 0.05 µg/mL | 400 |  | 312 | 20 µg/mL | 20 µg/mL | 0.082 µg/mL | 244 | 20 µg/mL |  | IC50 ([7]; Homo sapiens, LOX, 24 h, 24 h treatment, read-out: LOX (IC50)): 0.082 µg/mL; Selectivity (CV-1 IC50 / LOX IC50) ([7]; CV-1/LOX): 244; IC50 ([8]; Homo sapiens, MCF7, 24 h, 24 h treatment, read-out: MCF-7 (IC50)): 0.1 µg/mL; Selectivity (CV-1 IC50 / MCF-7 IC50) ([8]; CV-1/MCF-7): 200; IC50 ([4]; Homo sapiens, 24 h, 24 h treatment): 0.064 µg/mL; response vs control in vivo at 20 mg/kg (human melanoma LOX; 20 mg/kg, i.p. on day 1, 3, 6, 9, 13, 16): 156%; inhibition in vivo at 20 mg/kg ([2]; i.p. on day 1, 4, 7, 11, 15, 18): 64.1%; IC50 ([5]; read-out: CV-1 (IC50), Table V): 20 µg/mL; IC50 ([5]; read-out: CV-1 (IC50), Table VI): 20 µg/mL |
| CCN1/C(=C/C=C/c2sc3c4ccccc4ccc3[n+]2CC)Sc2c1ccc1ccccc21 [C, reference compound] | 0.05 µg/mL |  |  |  | < 0.1 µg/mL |  |  |  |  | highly toxic to normal nude mice |  |
| CCn1c(=Cc2sc3c4ccccc4ccc3[n+]2CC)sc(=CC=C2Sc3ccc4ccccc4c3N2C)c1=O [Compound 56] |  | 200 | < 0.046 µg/mL | > 435 |  |  | 0.09 µg/mL | 222 | 20 µg/mL |  | CX-1 (IC50) [3, 9]: 0.1 µg/mL; inhibition in vivo at 20 mg/kg ([2]; i.p. on day 1, 5, 8, 11): 82.6% |
| CCN1C(=CC=c2sc(=Cc3sc4c([n+]3CC)CCCC4)n(CC)c2=O)Oc2ccccc21 [Compound A, reference compound] | 0.04 µg/mL |  |  |  | 2 µg/mL |  |  |  |  | less toxic to normal nude mice |  |

Reference: US5861424A, “Composition and method for treating cancer” (priority 1995, dated 1999)
